Assay results as given in ChEMBL document CHEMBL1145125, “Simple, intuitive calculations of free energy of binding for protein-ligand complexes. 2. Computational titration and pH effects in molecular models of neuraminidase-inhibitor complexes” (J Med Chem, 2003).

Test: In vitro inhibitory activity against neuraminidase
Parameters: species or system unidentified influenza virus
`CC(=O)N[C@H]1[C@H]([C@H](O)[C@H](O)CO)OC(C(=O)O)=C[C@@H]1N` gave a Ki of 0.04 µM. `CC(=O)Nc1c(N)cc(C(=O)O)cc1O` gave an IC50 greater than 10 µM. `CC(=O)N[C@H]1[C@H]([C@H](O)[C@H](O)CO)OC(C(=O)O)=C[C@@H]1O` [NEU5AC2EN] showed a Ki of 4 µM. With `CC(=O)Nc1ccc(C(=O)O)cc1N` the IC50 was greater than 10 µM. For `CC(=O)N[C@H]1[C@H]([C@H](O)[C@H](O)CN)OC(C(=O)O)=C[C@@H]1O`, the Ki was 400 µM. For `CC(=O)N[C@H]1[C@H]([C@H](O)[C@H](O)CN)OC(C(=O)O)=C[C@@H]1N`, the Ki was 15 µM. Compound `CCCN(CCc1ccccc1)C(=O)[C@@H]1OC(C(=O)O)=C[C@H](N)[C@H]1NC(C)=O` has an IC50 of 3.6 µM. Work on `CC(=O)Nc1c(O)cc(C(=O)O)cc1[N+](=O)[O-]` yielded an IC50 of 750 µM.
